Each structure is given as a SMILES string. Where two headings read alike, the source gives them in different places. Where only a bound is given, the exact number is not on record here.

In assay [1] the test system is human SKM-1 acute myeloid leukemia cells. The assay is described as follows: SKM-1 antiproliferation cell-based assay (ATPlite). The settings on record: Homo sapiens. The method, boiled down: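 Log-phase cells in RPMI 1640/15% FBS were seeded at 34722 cells/mL and exposed for 4 days to nine-concentration DMSO serial dilutions in triplicate. Viability was read as ATP luminescence (ATPlite 1step), and IC50 values came from variable-slope non-linear regression.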
In general terms: In ATP-based viability assays light output follows the ATP content of the culture.

Assay [2] has as its target T1, human BRD4 bromodomain II (Homo sapiens, UniProt O60885).
T1 construct: human BRD4 bromodomain II [based on Genbank NM_058243, residues 349-460]; host or cells: E. coli
The assay can be described thus: Bromodomain binding assay (AlphaScreen), BRD4 BDII. The method, boiled down: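 Tagged BRD4 BDI or BDII constructs, expressed in E. coli, competed against a K5/K8/K12/K16-acetylated biotin-H4 peptide. Proximity signal between bead pairs after room-temperature incubations gave concentration-response curves, from which IC50 was derived.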
Background: Bead proximity is the source of the signal in Alpha formats.

Setting [3] is: SKM-1, SKM-1 antiproliferation assay.
Where [4] appears, read: BRD4 BDII AlphaScreen assay, read-out: BRD4 BD2 IC50.
The mark [5] stands for this setting: SKM-1, 96 h, SKM-1 antiproliferation assay, 4 days, Table C2.
[6] abbreviates: AlphaScreen assay, Table C2, read-out: BRD4 BDII IC50.

With `Cc1cc(-c2ccc(-n3ccn(C)c3=O)c(Cl)c2)c(O)c(-c2cnc(C)c(N3CCN(C(C)(C)C)CC3)c2)n1` [Example 961, 1-(4-(5′-(4-(tert-butyl)piperazin-1-yl)-3-hydroxy-6,6′-dimethyl-[2,3′-bipyridin]-4-yl)-2-chlorophenyl)-3-methyl-1H-imidazol-2(3H)-one], the GI50 in assay [1] (setting [3]) is 0.3 to 30 nM. Besides, the IC50 in assay [2] (setting [4]) is 1 to 10 nM.
The matching figures for `COc1ncc(-c2nc(C)cc(-c3ccc(-n4ccn(C)c4=O)c(F)c3)c2O)cc1N1CCN(C(C)(C)C)CC1` [Example 997, 1-(4-(5′-(4-(tert-butyl)piperazin-1-yl)-3-hydroxy-6′-methoxy-6-methyl-[2,3′-bipyridin]-4-yl)-2-fluorophenyl)-3-methyl-1H-imidazol-2(3H)-one]: 0.3 to 30 nM and 1 to 10 nM.
As to `CCC(=O)Nc1cc(-c2cc(F)cc(-c3ccc(-n4ccn(C)c4=O)c(Cl)c3)c2O)cc(N2CC[C@H](N)C2)n1` [Example 523, (S)-N-(6-(3-aminopyrrolidin-1-yl)-4-(3′-chloro-5-fluoro-2-hydroxy-4′-(3-methyl-2-oxo-2,3-dihydro-1H-imidazol-1-yl)-[1,1′-biphenyl]-3-yl)pyridin-2-yl)propionamide], the GI50 in assay [1] (setting [5]) lay in the range of 0.3 to 30 nM. In addition, the IC50 in assay [2] (setting [6]) was in the range of 1 to 10 nM.
On the same counts, the results for `Cn1ccn(-c2ccc(-c3cc(F)cc(-c4cncc(N5CCNC6(CC6)C5)c4)c3O)cc2Cl)c1=O` [Example 550, 1-(3′-(5-(4,7-diazaspiro[2.5]octan-7-yl)pyridin-3-yl)-3-chloro-5′-fluoro-2′-hydroxy-[1,1′-biphenyl]-4-yl)-3-methyl-1H-imidazol-2(3H)-one] are 0.3 to 30 nM and 0.01 to 1 nM.
The matching figures for `COc1ncc(-c2cc(F)cc(-c3ccc(-n4ccn(C)c4=O)c(Cl)c3)c2O)cc1N1CCN(C(C)(C)C)CC1` [Example 802, 1-(3′-(5-(4-(tert-butyl)piperazin-1-yl)-6-methoxypyridin-3-yl)-3-chloro-5′-fluoro-2′-hydroxy-[1,1′-biphenyl]-4-yl)-3-methyl-1,3-dihydro-2H-imidazol-2-one]: 0.3 to 30 nM and 0.01 to 1 nM.
On the same counts, the results for `Cc1cccn(-c2ccc(-c3cc(F)cc(-c4ccnc(N5CCNCC5)c4)c3O)cc2Cl)c1=O` [Example 496, 1-(3-chloro-5′-fluoro-2′-hydroxy-3′-(2-(piperazin-1-yl)pyridin-4-yl)-[1,1′-biphenyl]-4-yl)-^3-methylpyridin-2(1H)-one] are not below 3000 nM and more than 100 nM.
Take `C[C@@H]1CN(c2cc(-c3cccc(-c4ccc(N5CCN(C)C5=O)c(Cl)c4)c3O)ccn2)CCN1` [Example 294, (R)-1-(3-chloro-2′-hydroxy-3′-(2-(3-methylpiperazin-1-yl)pyridin-4-yl)-[1,1′-biphenyl]-4-yl)-3-methylimidazolidin-2-one]: in assay [1] (setting [5]), the GI50 lay within 30 to 300 nM. The IC50 in assay [2] (setting [6]) is 1 to 10 nM.
For the compound `CC(=O)Nc1ccc(-c2cccc(-c3cncc(N4CCN[C@H](C)C4)c3)c2O)cc1Cl` [Example 259, (R)-N-(3-chloro-2′-hydroxy-3′-(5-(3-methylpiperazin-1-yl)pyridin-3-yl)-[1,1′-biphenyl]-4-yl)acetamide], the GI50 in assay [1] (setting [5]) lay within 30 to 300 nM. Also, in assay [2] (setting [6]), the IC50 was 1 to 10 nM.
The matching figures for `CN1CCN(c2cncc(-c3cc(F)cc(-c4ccc(-n5ccn(C)c5=O)c(Cl)c4)c3O)c2)CC1` [Example 465, 1-(3-chloro-5′-fluoro-2′-hydroxy-3′-(5-(4-methylpiperazin-1-yl)pyridin-3-yl)-[1,1′-biphenyl]-4-yl)-3-methyl-1H-imidazol-2(3H)-one]: 0.3 to 30 nM and 0.01 to 1 nM.
As for `CC(=O)NC(C)(C)C#Cc1cccc(-c2cc(F)cc(-c3ccc(-n4ccn(C)c4=O)c(Cl)c3)c2O)c1` [Example 795, N-(4-(3″-chloro-5′-fluoro-2′-hydroxy-4″-(3-methyl-2-oxo-2,3-dihydro-1H-imidazol-1-yl)-[1,1′:3′,1″-terphenyl]-3-yl)-2-methylbut-3-yn-2-yl)acetamide], the concentration for 50% growth inhibition (GI50) in assay [1] (setting [5]) fell in the range of 300 to 3000 nM. The IC50 in assay [2] (setting [6]) was more than 100 nM.
On the same counts, the results for `COC(=O)CC1CN(c2cc(-c3cc(F)cc(-c4ccc(-n5ccn(C)c5=O)c(Cl)c4)c3O)ccn2)CCN1` (stereo not drawn) [Example 679, methyl 2-(4-(4-(3′-chloro-5-fluoro-2-hydroxy-4′-(3-methyl-2-oxo-2,3-dihydro-1H-imidazol-1-yl)-[1,1′-biphenyl]-3-yl)pyridin-2-yl)piperazin-2-yl)acetate] are 30 to 300 nM and 1 to 10 nM.
Turning to `Cc1ncc(-c2nccc(-c3ccc(-n4ccn(C)c4=O)c(Cl)c3)c2O)cc1N1CCN(C(C)(C)C)CC1` [Example 993, 1-(4-(5′-(4-(tert-Butyl)piperazin-1-yl)-3-hydroxy-6′-methyl-[2,3′-bipyridin]-4-yl)-2-chlorophenyl)-3-methyl-1H-imidazol-2(3H)-one], in assay [1] (setting [3]), the GI50 lay in the range of 0.3 to 30 nM. In addition, the IC50 in assay [2] (setting [4]) was in the range of 10 to 100 nM.
In turn, `Cc1ncc(-c2cc(F)cc(-c3ccc(-n4ccn(C)c4=O)c(Cl)c3)c2O)cc1N1CC[C@@](C)(O)C1` [Example 825, (R)-1-(3-chloro-5′-fluoro-2′-hydroxy-3′-(5-(3-hydroxy-3-methylpyrrolidin-1-yl)-6-methylpyridin-3-yl)-[1,1′-biphenyl]-4-yl)-3-methyl-1H-imidazol-2(3H)-one] gave a 50% growth inhibitory concentration (GI50) in assay [1] (setting [5]) of 0.3 to 30 nM. In assay [2] (setting [6]), the IC50 was in the range of 0.01 to 1 nM.
On the same counts, the results for `COCCN1CCN(c2cc(-c3cc(F)cc(-c4ccc(-n5ccn(C)c5=O)c(Cl)c4)c3O)ccn2)CC1` [Example 645, 1-(3-chloro-5′-fluoro-2′-hydroxy-3′-(2-(4-(2-methoxyethyl)piperazin-1-yl)pyridin-4-yl)-[1,1′-biphenyl]-4-yl)-3-methyl-1H-imidazol-2(3H)-one] are 0.3 to 30 nM and 0.01 to 1 nM.
In assay [1] (setting [3]), `Cc1cc(-c2cc(F)cc(-c3cccc(N4CCN(C(C)(C)C)CC4)c3)c2O)ncc1-n1ccn(C)c1=O` [Example 940, 1-(6-(3′-(4-(tert-butyl)piperazin-1-yl)-5-fluoro-2-hydroxy-[1,1′-biphenyl]-3-yl)-4-methylpyridin-3-yl)-3-methyl-1H-imidazol-2(3H)-one] gave a 50% growth inhibitory concentration (GI50) of 300 to 3000 nM. For the same compound, the IC50 in assay [2] (setting [4]) is more than 100 nM.
Take `Cc1cc(-c2cc(F)cc(-c3ccc(-n4ccn(C)c4=O)c(Cl)c3)c2O)cc(N2CCN(C(C)(C)C)CC2)c1` [Example 828, 1-(3″-(4-(tert-butyl)piperazin-1-yl)-3-chloro-5′-fluoro-2′-hydroxy-5″-methyl-[1,1′:3′,1″-terphenyl]-4-yl)-3-methyl-1H-imidazol-2(3H)-one]: in assay [1] (setting [5]), the GI50 lay within 0.3 to 30 nM. In assay [2] (setting [6]), the IC50 was in the range of 0.01 to 1 nM.
`COc1ncc(-c2cc(F)cc(-c3ccc(-n4ccn(C)c4=O)c(Cl)c3)c2O)cc1N1CCN(C2CCOC2)CC1` (stereo not drawn) [Example 869] yielded a GI50 in assay [1] (setting [3]) of 0.3 to 30 nM. Moreover, the IC50 in assay [2] (setting [4]) fell in the range of 1 to 10 nM.
On the same counts, the results for `CC(C)Oc1cc(-c2cc(F)cc(-c3cccc(N4CCN(C(C)(C)C)CC4)c3)c2O)cc(Cl)c1-n1ccn(C)c1=O` [Example 937, 1-(3″-(4-(tert-butyl)piperazin-1-yl)-3-chloro-5′-fluoro-2′-hydroxy-5-isopropoxy-[1,1′:3′,1″-terphenyl]-4-yl)-3-methyl-1,3-dihydro-2H-imidazol-2-one] are 30 to 300 nM and 10 to 100 nM.
On to `O=C1NCCCN1c1ccc(-c2cc(F)cc(-c3ccnc(N4CCNCC4)c3)c2O)cc1Cl` [Example 287, 1-(3-chloro-5′-fluoro-2′-hydroxy-3′-(2-(piperazin-1-yl)pyridin-4-yl)-[1,1′-biphenyl]-4-yl)tetrahydropyrimidin-2(1H)-one], for which the GI50 in assay [1] (setting [5]) fell in the range of 300 to 3000 nM. In addition, the IC50 in assay [2] (setting [6]) was more than 100 nM.
On the same counts, the results for `O=C1CCCN1c1ccc(-c2cccc(-c3cccc(N4CCNCC4)c3)c2O)cc1F` [Example 173, 1-(3-fluoro-2′-hydroxy-3″-(piperazin-1-yl)-[1,1′:3′,1″-terphenyl]-4-yl)pyrrolidin-2-one] are 300 to 3000 nM and 1 to 10 nM.
The matching figures for `CCc1ncc(-c2cc(F)cc(-c3ccc(-n4ccn(C)c4=O)c(Cl)c3)c2O)cc1N1CCN(C(C)C)CC1` [Example 756, 1-(3-chloro-3′-(6-ethyl-5-(4-isopropylpiperazin-1-yl)pyridin-3-yl)-5′-fluoro-2′-hydroxy-[1,1′-biphenyl]-4-yl)-3-methyl-1H-imidazol-2(3H)-one]: 0.3 to 30 nM and 0.01 to 1 nM.
The matching figures for `[2H]C([2H])([2H])n1ccn(-c2ccc(-c3cc(F)cc(-c4ccnc(N5CCNC[C@@H]5C)c4)c3O)cc2Cl)c1=O` [Example 482, (S)-1-(3-chloro-5′-fluoro-2′-hydroxy-3′-(2-(2-methylpiperazin-1-yl)pyridin-4-yl)-[1,1′-biphenyl]-4-yl)-3-deuteromethyl-1H-imidazol-2(3H)-one]: 0.3 to 30 nM and 0.01 to 1 nM.
In assay [1] (setting [5]), `CC(=O)N[C@]1(C)CCN(c2cncc(-c3cc(F)cc(-c4ccc(-n5ccn(C)c5=O)c(Cl)c4)c3O)c2)C1` [Example 793, (R)-N-(1-(5-(3′-chloro-5-fluoro-2-hydroxy-4′-(3-methyl-2-oxo-2,3-dihydro-1H-imidazol-1-yl)-[1,1′-biphenyl]-3-yl)pyridin-3-yl)-3-methylpyrrolidin-3-yl)acetamide] came in with a GI50 of 0.3 to 30 nM. Also, the IC50 in assay [2] (setting [6]) was 0.01 to 1 nM.
With `COc1ncc(-c2cc(F)cc(-c3ccc(-n4ccn(C)c4=O)c(Cl)c3)c2O)cc1N1CC[C@@]2(CCN2C(C)C)C1` [Example 902], in assay [1] (setting [3]), the GI50 was in the range of 0.3 to 30 nM. Also, the IC50 in assay [2] (setting [4]) lay within 0.01 to 1 nM.

As a reminder, the GI50 is the concentration at which growth is held to half of that of the control. A lower GI50 goes with greater sensitivity of the cells. What is called IC50 is the concentration that gives 50% inhibition.
